We go through one compound from patent US4956381A, “Treating tissue calcium depletion or degenerative processes in bone or cartilage” (Sandoz Ltd., priority 1987, dated 1990).

The structures appear in SMILES notation. pIC50: −log10 of the molar value. Read-outs that look alike come from different tables or passages of the source.

One data set deals with beagle dogs. Put plainly: Tolerability / pilot toxicology in beagle dogs. The class given is in vivo. The conditions noted are these: up to 200 mg/kg/day for 26 weeks.
Data set [1] concerns mouse peritoneal macrophages. Put plainly: Mouse macrophage monokine inhibition (chondrocyte bioassay). The class given is cell-based. The conditions noted are these: 24 h, substantially pure Z-isomeric form, 3-5 separate experiments in triplicate, read-out: ED50 (suppression of monokine release). On the procedure: Purified IL-1, [Schnyder et al., J. Immunol. […] [c.f. […] J. Rheumatol.
Culture media are diluted 1:1 (v:v) with fresh medium and added to confluent rabbit chondrocytes. […] activity in the chondrocyte culture medium is monitored after a further two days.

For the next data set, the system named is recombinant human IL-2. Put plainly: Recombinant human IL-2 induced mouse thymocyte proliferation. The data set is classed as cell-based. The conditions noted are these: 10 ng/ml rh IL-2. On the procedure: (§1) Lymphocyte proliferation is the standard test for monokine activity. It is highly sensitive, though relatively unspecific, with IL-2, phorbol myristate acetate, concanavalin A' g-type-prostaglandin and indomethacin-nall effecting disturbance. Human monocyte culture media are prepared as described under I.I.b. above, diluted 1:10, 1:20 and 1:40 (v:v), and added to […] (obtained from C3H/HeJ mice) Dulbecco's modified Eagle's medium, containing 20 mM hydroxyethyl-piperazin-ethane-sulfonic acid, 12 mM NaHCO3, 2 mM glutamine, 2% foetal bovine serum, 10 μM 2-mercaptoethanol, […] and antibiotics. The cells are incubated for 2 days in 96-well culture plates and the proliferation rate determined using a ^3 H-thymidine pulse (1 μC/well) during the final 6 hours. The incorporated radioactivity is collected on filter paper and counted. […] Thus determined ED50 s for the compounds D2 and K1 each in substantially pure Z-isomeric form in a series of 2 separate experiments each with 3 parallel determinations are of the order of 30 μM
(§2) In order to rule out an antagonistic effect or a direct influence of the COMPOUNDS OF THE INVENTION on the proliferation of mouse thymocytes which are used above in the LAF-test, the effect of the COMPOUNDS OF THE INVENTION on the incorporation of ^3 H-thymidine Is determined after thymocyte stimulation with recombinant human IL-1 or IL-2.

The subject of a further data set is adjuvant arthritis. Briefly: Disease modifying activity in an animal model of rheumatoid arthritis (adjuvant arthritis). The conditions noted are these: substantially pure Z-isomeric form. The data set is classed as in vivo, rat. On the procedure:
Following induction of adjuvant arthritis in 48 adult female rats, the test compound is administered orally for 40 days. Articular swelling and bone densitometry are measured at days 10, 20, 30 and 40 and compared with control animals receiving placebo. In addition, cartilage glycosaminoglycans (GAG) are measured in femoral condyles removed on completion of the treatment period. α2 -Macroglobulin is determined in serum on days 0, 3, 6, 9, 16 and 22.
The procedure for in vivo estimation of bone density in adult rats as used in the above test method is based on the radiographic densitometric method described by Albanese et al. in J. Amer. Ger. Soc. 17, 142-153 (1969). A longitudinal bone survey is conducted in the arthritic rats during the treatment with the test substance and compared with untreated arthritic rats and control animals. In vivo quantitative radiographic scanning is performed taking the trabecular mass as the parameter. […] Because of the characteristics of the system (image darkening representing increased Relative Optical Density) the recorded values are expressed as (1-x) where x Is the experimentally measured ROD in order to conform to the biological effect of X-rays on bone tissue (i.e. film darkening indicates decrease in bone density). […]

The next data set relates to recombinant human IL-1. Briefly: Recombinant human IL-1 induced mouse thymocyte proliferation. The class given is cell-based. The conditions noted are these: 75 ng/ml rh IL-1. The protocol:
as §1, §2

For data set [2], the system named is psoriatic arthritis or seronegative spondylarthrosis or osteoarthrosis. Briefly: Clinical trial IV: degenerative joint disease. The data set is classed as in vivo, human. The conditions noted are these: ca. 200 to 1200 mg p.o./day, 8 weeks. The protocol:
COMPOUND OF THE INVENTION, e.g. compound D2 or K1 in substantially pure Z-isomeric form, is administered at dosages of from ca. 200 to 1200 mg/p.o./day, once or in divided dosages up to 4×daily for 8 weeks. The subjects are examined at a regular interval of 2 weeks for disease progression on parameters such as pain sensation at the joints, evaluation of the functional capacity according to Steinbrocker, hand grip strength or Richtie Index.

For data set [3], the system named is lysosomal enzyme N-acetyl-glucose-aminidase. Put plainly: Prevention of bone resorption: N-acetyl-glucose-aminidase release from calvaria. The class given is cell-based, Swiss albino mice. The conditions noted are these: Mus musculus, read-out: IC50 N-acetylglucose-aminidase. On the procedure: (§3) Calvaria halves (frontal and parietal parts) from 4-5 day Swiss albino mice are cultured on stainless steel grids in BGJ bone tissue culture medium, supplemented with 1 mg/ml BSA at the interphase of medium and gas in a humidified atmosphere (95% air/5% CO2 ) at 37° C. - c.f. Reynolds et al. in "Organ Culture in Biomed. Res." eds. Balls and Mamichendam, Cambridge University Press, p.p. 355-366 (1976).
(§4) Influence of test substance at varying concentrations on calcium release into :he test medium in the presence of calcium release stimulators [PGE2, LPS or […] (1,25D3)]is determined. For this purpose calcium concentrations are measured in bone culture supernatants obtained from 72 and 144 hour cultures and in TCA extracts of the calvaria at the end of culture by spectrometric methods [Gindler et al., Am. J. Clin. Pathol. 58, 376-382 (1972)]. Activity of lysosomal enzyme N-acetyl-glucose-aminidase in bone culture supernatants and in Triton 100 extracts of calvaria after culture is also determined employing the method of Banerjee and Basu, Biochem. J., 45, 113-118 (1975). Changes in enzyme activity are expressed as μ units/calvarium half and as % release.
(§5) (For the calculation of IC50 values the difference between resorption rate in control cultures and resorption in maximally stimulated cultures is taken as 100 %. The IC50 is taken as the concentration of test substance which inhibits maximum resorption by 50 %)

The next data set relates to IL-1. Put plainly: IL-1 induced secretion of metalloproteinase (MP) in chondrocytes. The class given is cell-based. The conditions noted are these: 2 days incubation. The protocol: Furthermore the influence on IL-1 induced secretion of MP is determined using chondrocytes as a target system for IL-1. IL-1 (Genzyme Corporation,USA) is added with or without a COMPOUND OF THE INVENTION or Dexamethasone (control) to chondrocytes and the activity or metalloproteinase is determined in the supernatant media of 2 days incubation period.

The subject of another data set is Calvaria halves. Briefly: Prevention of bone resorption: calcium release from calvaria. The class given is cell-based, Swiss albino mice. The conditions noted are these: Mus musculus. On the procedure:
as §3, §4, §5

Setting [4] is: 3H-thymidine incorporation, mouse thymocytes.

For `COC1=Cc2ccccc2/C(=C/C(=O)O)c2ccsc21` [Compound D2, [10-Methoxy-4H-benzo[4,5]cyclohepta[1,2-b]thiophen-4-ylidene]-acetic acid], the tolerability result in the data set on beagle dogs is “generally well tolerated”. Also, the pIC50 in data set [1] was about 4.00; in data set [3] (in the presence of 1,25D3) it was 4.43; in [3] (in the presence of LPS), 5.08; in [3] (in the presence of PGE2), 5.10; in the data set with Calvaria halves (in the presence of 1,25D3) it was 4.42; in the data set on Calvaria halves (in the presence of LPS), 4.55. Moreover, in the data set with Calvaria halves (in the presence of PGE2), the pIC50 is 4.66. The “concentration dependency of influence on rh IL-2 induced proliferation” value in the data set on recombinant human IL-2 is “no concentration dependency is detectable”. Also, the “influence on recombinant human IL-2 induced proliferation” value in the data set with recombinant human IL-2 (setting [4]) was “no significant influence”. The “protective effect on cartilage and bone” value in the data set with adjuvant arthritis (rats with adjuvant arthritis) was “show a protective effect on cartilage and bone in rats with adjuvant arthritis”. Besides, in the data set with adjuvant arthritis (especially after 30 days treatment), the disease modifying activity result is given as “exhibit disease modifying activity especially after a period of 30 days treatment”. Also, in the data set with recombinant human IL-1, the “concentration dependency of influence on rh IL-1 induced proliferation” value was “no concentration dependency is detectable”. Besides, the “influence on recombinant human IL-1 induced proliferation” value with recombinant human IL-1 (setting [4]) is recorded as “no significant influence”. Besides, the “condition (degenerative joint disease)” value in [2] is “improvement in condition after the 8 week treatment period”. The “influence on IL-1 induced secretion of MP” value in the data set on IL-1 was “do not influence the IL-1 induced secretion of MP”.
